{
  "source": "patent US20220000811A1",
  "about": "“COMPOSITION FOR PROMOTING HAIR GROWTH COMPRISING A GUANINE DERIVATIVE” (KOREA RESEARCH INSTITUTE OF BIOSCIENCE AND BIOTECHNOLOGY, priority 2019, published 2022)",
  "key": {"[1]": {"system": "mouse embryonic fibroblasts (MEFs)", "test": "Reprogramming into iPSCs (OSKM) in mouse embryonic fibroblasts, AP staining", "format": "cell-based", "conditions": "for effect on reprogramming, number of AP+ colonies: MEFs, OSKM, after 14 days, indicated concentrations", "procedure": "During reprogramming into iPSCs by introducing OSKM reprogramming factor into mouse embryonic fibroblasts (MEFs), rotenone, the guanidine derivatives of the present invention, and phenformin were treated at the indicated concentrations. After 14 days, alkaline phosphatase (AP) staining was performed (FIG. 2A), and the number of AP^+ colonies was quantified (FIG. 2b). […] In the subsequent experiment, additional efficacy was evaluated using only the three compounds showing the effective reprogramming-enhancing effect."}, "[2]": {"system": "human foreskin fibroblast (HFFs)", "test": "Reprogramming into iPSCs (OSKM) in human foreskin fibroblasts, AP staining", "format": "cell-based", "conditions": "OSKM, after 28 days", "procedure": "After 28 days, AP staining was performed (FIG. 3a), and the number of AP^+ colonies was quantified (FIG. 3b)."}, "[3]": {"system": "human embryonic stem cells (hESCs)", "test": "Maintaining stemness of human embryonic stem cells in unconditioned medium, AP staining", "format": "cell-based", "conditions": "hESCs in unconditioned medium, low dose", "procedure": "Additionally, the effect of the compounds of the present invention on maintaining sternness of human embryonic stern cells (hESCs) was confirmed (FIG. 4). Specifically, when hESCs were cultured in an unconditioned medium (UM), the sternness was lost, and AP activity was weakened (FIG. 4a). […] In particular, when IM176OUT05 was treated at 10 nM and 100 nM concentrations, it was confirmed that the effect of maintaining the sternness was improved by 7.6 times and 8.2 times, respectively (FIG. 4b)."}, "[4]": {"system": "C57BL/6 mice", "test": "Hair regeneration model, darkness of dorsal skin and hair growth", "format": "in vivo, mouse", "conditions": "1% topical daily", "procedure": "During the hair telogen phase, the hair on the dorsal skin of 7-week-old C57BL/6 mice (Dae Han BioLink, Chungbuk, Republic of Korea) was depilated using an animal clipper and wax (Veet, Oxy Reckitt Benckiser, Seoul, Republic of Korea). From the next day, 200 μL of placebo (control), 1% IM, 1% minoxidil, or 1% metformin was applied daily to the depilated area using a sterile cotton swab. Images of each animal were captured daily, and the degree of darkness of the color on dorsal skin was quantified in the same area (1.6 cm×3 cm) using the Image J program. The mice were sacrificed, and skin tissues on days 0, 7, 14, and 20 were obtained. Half of the tissues were used for RNA isolation, and the other half were fixed with 4% paraformaldehyde overnight for histochemical analysis. It was confirmed whether the IM compound can promote hair growth without showing toxicity or other side effects through mouse experiments. In 7-week-old C57BL/6 mice, the telogen phase was motivated by hair removal, and various concentrations of IM were applied topically to the dorsal skin of the mice daily."}, "[5]": {"system": "K15/β-catenin, Ki67/Shh, K15/PDK, Ki67/PDH populations", "test": "FACS analysis of single skin cells", "format": "in vivo, mouse", "procedure": "During the hair telogen phase, the hair on the dorsal skin of 7-week-old C57BL/6 mice (Dae Han BioLink, Chungbuk, Republic of Korea) was depilated using an animal clipper and wax (Veet, Oxy Reckitt Benckiser, Seoul, Republic of Korea). From the next day, 200 μL of placebo (control), 1% IM, 1% minoxidil, or 1% metformin was applied daily to the depilated area using a sterile cotton swab. Images of each animal were captured daily, and the degree of darkness of the color on dorsal skin was quantified in the same area (1.6 cm×3 cm) using the Image J program. The mice were sacrificed, and skin tissues on days 0, 7, 14, and 20 were obtained. Half of the tissues were used for RNA isolation, and the other half were fixed with 4% paraformaldehyde overnight for histochemical analysis. After the mice were perfused with PBS to remove blood, the skin tissue was harvested and cut into small pieces. The tissue was digested with trypsin (Thermo Fisher Scientific) at 37° C. for 150 minutes, then filtered through a 75 μm nylon mesh, followed by filtering through a 30 μm mesh (BD Biosciences). Single cells were fixed, permeabilized, and blocked according to the immunostaining protocol. The cells were stained with specific antibodies (Table 1 above) and analyzed with BD Accuri™ C6 (BD Biosciences)"}},
  "data": [
    {"smiles": "NC(=Nc1ccc(OC(F)(F)F)cc1)N=C(N)N1CCCC1", "note": "[IM156]", "values": [
      {"measurement": "effect on reprogramming, number of AP+ colonies", "setting": "[1]", "result": "did not show an effect of promoting reprogramming"}
    ]},
    {"smiles": "N=C(N)NC(=N)NCCc1ccc(Cl)c(Cl)c1", "note": "[IM176OUT04, N-1-(3,4-dichloro)phenethylbiguanide]", "values": [
      {"measurement": "concentration with the most excellent reprogramming efficacy", "setting": "[2]", "result": 10, "unit": "nM"},
      {"measurement": "AP staining (stemness)", "setting": "[3]", "result": "increase in AP staining"},
      {"measurement": "effect on reprogramming, number of AP+ colonies", "setting": "[1]", "result": "increased"}
    ]},
    {"smiles": "[H]/N=C(/N)N/C(=N/[H])NCCc1ccccc1", "note": "[phenformin, reference compound]", "values": [
      {"measurement": "effect on reprogramming, number of AP+ colonies", "setting": "[1]", "result": "did not show an effect of promoting reprogramming"}
    ]},
    {"smiles": "C=C(C)[C@H]1Cc2c(ccc3c2O[C@@H]2COc4cc(OC)c(OC)cc4[C@@H]2C3=O)O1", "note": "[Rotenone, reference compound]", "values": [
      {"measurement": "promotion of reprogramming of somatic cells", "setting": "[1]; sub-toxic dose (10 nM)", "result": "efficiently promote reprogramming"}
    ]},
    {"smiles": "CN(C)C(=N)N=C(N)N", "note": "[metformin, reference compound]", "values": [
      {"measurement": "hair growth effect overall", "setting": "[4]", "result": "did not show a remarkable effect"},
      {"measurement": "darkness intensity on the dorsal skin compared to control", "setting": "[4]; from day 8", "result": "slightly was increased"}
    ]},
    {"smiles": "Nc1cc(N2CCCCC2)nc(N)[n+]1[O-]", "note": "[minoxidil, reference compound]", "values": [
      {"measurement": "K15+/β-catenin+ population in single skin cells", "setting": "[5]; day 7, FACS", "result": 6.0, "unit": "%"},
      {"measurement": "Ki67+/PDH+ population", "setting": "[5]; day 7, FACS", "result": 8.3, "unit": "%"},
      {"measurement": "Ki67+/Shh+ population in single skin cells", "setting": "[5]; day 20, FACS", "result": 34, "unit": "%"}
    ]},
    {"smiles": "Cc1ccc(CCNC(=N)N)cc1C", "note": "[IM177OUT02, 1-(3,4-dimethylphenethyl)guanide]", "values": [
      {"measurement": "concentration with the most excellent reprogramming efficacy", "setting": "[2]", "result": 10, "unit": "nM"},
      {"measurement": "AP staining (stemness)", "setting": "[3]", "result": "increase in AP staining"},
      {"measurement": "effect on reprogramming, number of AP+ colonies", "setting": "[1]", "result": "increased"}
    ]}
  ]
}
